The values that follow come from publication PMC12036747, “Effects of galloflavin and ellagic acid on sirtuin 6 and its anti-tumorigenic activities” (Biomedicine & pharmacotherapy = Biomedecine & …, 2020).

What is called EC50 is the concentration needed to bring the measured effect to its halfway point. A lower EC50 goes with a more potent agent.

Structures are written as SMILES.

What all share (assay type): biochemical
Assay [1] addresses T1, SIRT3 (Homo sapiens, UniProt Q9NTG7).
T1 sequence (Q9NTG7 102-399): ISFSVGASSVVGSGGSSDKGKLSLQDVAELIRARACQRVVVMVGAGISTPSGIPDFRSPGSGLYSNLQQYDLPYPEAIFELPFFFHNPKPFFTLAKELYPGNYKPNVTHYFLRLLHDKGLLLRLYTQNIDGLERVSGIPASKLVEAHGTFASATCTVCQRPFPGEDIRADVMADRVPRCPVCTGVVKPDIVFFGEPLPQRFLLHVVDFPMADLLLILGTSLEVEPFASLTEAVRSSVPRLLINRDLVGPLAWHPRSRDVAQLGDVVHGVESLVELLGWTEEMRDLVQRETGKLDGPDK
The assay can be described thus: Fluor de Lys deacetylation assay, moderate inhibition at […].

For assay [2], the target named is T2, SIRT1 (Homo sapiens, UniProt Q96EB6).
T2 sequence (Q96EB6 2-747): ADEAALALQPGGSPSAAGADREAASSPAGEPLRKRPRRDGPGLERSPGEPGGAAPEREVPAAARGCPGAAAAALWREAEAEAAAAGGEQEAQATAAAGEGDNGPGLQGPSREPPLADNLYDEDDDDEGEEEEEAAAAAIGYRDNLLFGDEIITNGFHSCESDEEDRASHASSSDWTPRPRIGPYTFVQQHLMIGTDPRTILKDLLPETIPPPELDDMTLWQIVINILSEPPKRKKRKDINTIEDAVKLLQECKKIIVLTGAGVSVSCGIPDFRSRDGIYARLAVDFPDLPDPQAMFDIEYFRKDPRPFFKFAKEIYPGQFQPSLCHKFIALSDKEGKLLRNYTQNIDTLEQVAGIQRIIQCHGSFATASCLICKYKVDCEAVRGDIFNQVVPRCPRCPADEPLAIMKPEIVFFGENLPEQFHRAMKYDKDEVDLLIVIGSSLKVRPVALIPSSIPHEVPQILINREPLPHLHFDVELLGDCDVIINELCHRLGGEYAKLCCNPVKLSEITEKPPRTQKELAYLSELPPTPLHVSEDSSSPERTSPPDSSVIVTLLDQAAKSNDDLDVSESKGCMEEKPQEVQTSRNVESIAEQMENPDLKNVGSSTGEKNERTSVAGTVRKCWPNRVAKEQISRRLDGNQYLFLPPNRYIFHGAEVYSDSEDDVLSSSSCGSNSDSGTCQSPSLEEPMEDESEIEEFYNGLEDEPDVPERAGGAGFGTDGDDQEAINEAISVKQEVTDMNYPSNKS
Described as above.

Assay [3] deals with T3, Sirtuin 6 (SIRT6) (Homo sapiens, UniProt Q8N6T7).
T3 construct: recombinant GST-tagged human SIRT6
The assay can be described thus: HPLC deacetylation assay with H3K9Ac peptide (activation); immunoblot with core histones; Michaelis-Menten kinetics.

The target of assay [4] is T4, SIRT2 (Homo sapiens, UniProt Q8IXJ6).
T4 sequence (Q8IXJ6 2-389): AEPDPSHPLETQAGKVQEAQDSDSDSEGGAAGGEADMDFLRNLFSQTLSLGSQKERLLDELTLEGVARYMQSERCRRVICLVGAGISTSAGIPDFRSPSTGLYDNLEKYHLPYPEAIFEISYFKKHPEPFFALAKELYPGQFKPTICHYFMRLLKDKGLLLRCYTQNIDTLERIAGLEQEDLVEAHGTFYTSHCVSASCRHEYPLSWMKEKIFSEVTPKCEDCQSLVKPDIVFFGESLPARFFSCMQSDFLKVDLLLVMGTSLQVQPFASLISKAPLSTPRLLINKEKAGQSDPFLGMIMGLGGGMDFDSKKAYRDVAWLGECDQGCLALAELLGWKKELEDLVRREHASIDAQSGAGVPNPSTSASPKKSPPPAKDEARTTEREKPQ
The assay can be described thus: Fluor de Lys deacetylation assay, inhibition at […].

The target in assay [5] is T3, Sirtuin 6 (SIRT6). The experiment in a line: HPLC deacetylation assay with H3K9Ac peptide (activation); immunoblot with core histones. (In general: A western blot detects proteins with antibodies after separation by electrophoresis.)

T3 sequence (Q8N6T7 2-355): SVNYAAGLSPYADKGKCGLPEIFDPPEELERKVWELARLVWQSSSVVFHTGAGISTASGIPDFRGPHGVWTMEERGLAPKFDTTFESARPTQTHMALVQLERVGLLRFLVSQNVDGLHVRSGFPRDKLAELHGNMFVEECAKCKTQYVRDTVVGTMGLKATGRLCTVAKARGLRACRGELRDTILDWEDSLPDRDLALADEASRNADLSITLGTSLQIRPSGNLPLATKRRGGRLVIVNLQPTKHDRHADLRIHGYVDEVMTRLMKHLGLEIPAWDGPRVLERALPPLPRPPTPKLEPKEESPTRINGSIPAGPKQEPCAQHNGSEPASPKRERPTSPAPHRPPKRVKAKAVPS

Regarding `O=c1oc2c(O)c(O)cc3c(=O)oc4c(O)c(O)cc1c4c23` [Ellagic acid], the “Fluor de Lys deacetylation assay, moderate inhibition at 100 μM” value in assay [1] was “Galloflavin and Ellagic acid displayed moderate inhibition against SIRT1 and SIRT3”; in assay [2], “Galloflavin and Ellagic acid displayed moderate inhibition against SIRT1 and SIRT3”. Further, in assay [3], it took 25 µM to reach a half-maximal effect (EC50). Also, the “%” value in assay [4] is “up to 60 % inhibition at 100 μM”.

As for `O=c1oc2c(cc1O)oc(=O)c1cc(O)c(O)c(O)c12` [Galloflavin], the “Fluor de Lys deacetylation assay, moderate inhibition at 100 μM” value is “Galloflavin and Ellagic acid displayed moderate inhibition against SIRT1 and SIRT3” in assay [1]; “Galloflavin and Ellagic acid displayed moderate inhibition against SIRT1 and SIRT3” in assay [2]. In assay [5], this compound came in with an EC50 of 79 µM. Also, the “%” value in assay [4] was “up to 60 % inhibition at 100 μM”.
